{"source": "patent US20250275975A1", "about": "“Methods of Treating Neuropathies” (Athira Pharma, Inc., priority 2023, published 2025)", "key": {"STZ DNP rats [1]": {"system": "STZ DNP rats", "assay": "Thermal hyperalgesia rescue assay (hot plate paw withdrawal latency), Example B1", "format": "in vivo, Sprague Dawley rats", "set-up": "key to Efficacy: rescue of thermal hyperalgesia behavior as measured by paw withdrawal latency: NS indicates treatment did not significantly affect paw withdrawal latency vs disease control.; + indicates p < 0.05 vs disease control.; ++ indicates p < 0.01 vs disease control.; +++ indicates p < 0.001 vs disease control", "conditions": "for Efficacy: rescue of thermal hyperalgesia behavior as measured by paw withdrawal latency: study day 28 after 14 days of treatment, hot plate 52.5° C., p vs disease control; for rescue of thermal allodynia behavior as measured by paw withdrawal latency: STZ DNP rats", "description": "(§1) A series of studies were performed to determine the ability of HGF/MET positive modulator compounds to reduce the mechanical allodynia pain behaviors in hyperglycemic rats. A single dose of STZ (55 mg/kg via intravenous (IV)) was administered to induce a Type I diabetic hyperglycemia in male Sprague Dawley rats. Hyperglycemia was confirmed 4 days after STZ administration, with blood glucose levels above 200 mg/dL considered successful model induction. 14 days after disease induction, test compound treatment was initiated and continued as daily compound administration over the remaining course of the study. Route and dose for each compound were determined by pharmacokinetic and distribution modelling. Control groups included animals with no diabetic induction (Sham control), animals with diabetes but treated only with formulation vehicle (DNP (diabetic peripheral neuropathy) control), and disease animals treated with pregabalin (30 mg/kg via PO), which is known to reduce neuropathic pain behaviors.\n(§2) Changes to neuropathic pain behaviors were assessed after 14 days of compound treatment on study day 28. Mechanical allodynia was tested by placing each animal on an elevated wire grid and stimulating the plantar surface of the right rear paw with a series of filaments corresponding to increasing orders of force, reaching a maximum force of 60 grams (Aesthesio manual Von Frey filaments). The force of the filament that causes paw withdrawal was considered the paw withdrawal threshold in grams. Pain sensitivity in response to thermal hyperalgesia was determined by using hot plate method and represented as paw withdrawal latency (PWL). Rats were placed on the hot plate (52.5° C.), and the time taken to show the nocifensive behavior (either licking or jumping) of any of their paws was recorded. Statistical comparison of treatment groups to DNP control groups was performed by one-way ANOVA followed by Dunnett's multiple comparisons test."}, "STZ DNP rats [2]": {"system": "STZ DNP rats", "assay": "Mechanical allodynia rescue assay (Von Frey paw withdrawal threshold), Example B1", "format": "in vivo, Sprague Dawley rats", "set-up": "key to Efficacy: rescue of mechanical allodynia behavior as measured by paw withdrawal threshold: NS indicates treatment did not significantly affect paw withdrawal threshold vs disease control.; + indicates p < 0.05 vs disease control.; ++ indicates p < 0.01 vs disease control.; +++ indicates p < 0.001 vs disease control", "conditions": "for Efficacy: rescue of mechanical allodynia behavior as measured by paw withdrawal threshold: study day 28 after 14 days of treatment, p vs disease control; for rescue of the mechanical allodynia behavior as measured by paw withdrawal threshold: STZ DNP rats", "from_the_text": "Hyperglycemic rats consistently develop neuropathic pain-associated behaviors including mechanical allodynia. Allodynia refers to a type of neuropathic pain characterized by increased sensitivity to stimuli that are not normally painful. Mechanical allodynia is quantified in rats by determination of the force required to induce a withdrawal of the paw and is negatively associated with allodynia such that, the lower the force required to induce paw withdrawal, the greater the pain behavior.\nas §1, §2"}, "[3]": {"system": "neuron-Schwann cell co-cultures injured with cisplatin", "assay": "Sensory neurite extension and myelination in cisplatin-injured primary dorsal root ganglia cultures", "format": "cell-based, rat", "set-up": "key to Significant promotion of Neurite Network Extension of Sensory Neurons / Significant promotion of Myelination of Sensory neurons by Schwann Cells: “NS” indicates the treatment did not have a significant effect; “+” indicates the treatment had a significant effect", "conditions": "for Significant promotion of Myelination of Sensory neurons by Schwann Cells / Significant promotion of Neurite Network Extension of Sensory Neurons: +Cisplatin injury (10 μg/ml, 24 hours), vs Cisplatin-treated group", "description": "(§3) To assess the effects of test compound treatment on these structures central to neuropathic pathology, peripheral sensory neurons were modeled using dissociated primary cultures of neurons and Schwann cells collected from fetal rats. Fetal rats were collected from pregnant females after 15 days of gestation, and the dorsal root ganglion was dissociated via trypsin digestion and mechanical disruption. The resulting cells were plated and allowed to grow for 7 days. On day 7 in culture, ascorbic acid at a concentration of 50 μM was added to the culture to promote myelination of sensory neurons by Schwann cells.\nTo model the effects of neuropathic injury in sensory neurons and associated Schwann cells, cultures were injured with the chemotherapy drug cisplatin. These cultures were prepared identically to those described above. In this system, Compound 5a, HGF, and β-estradiol treatments began on culture day 19. Also on culture day 19, cisplatin (10 μg/ml) was added to the cultures for 24 hours. On culture day 20, cisplatin was removed from the media while test compound treatments were replaced for 24 hours. On day 21 in culture, cells were fixed and processed for immunodetection as described above.\n(§4) 30 fluorescent images were captured for each treatment group and images were quantified by automated image analysis. Neurite network extension was quantified as the total length of MAP2-positive neurites per cell measured in μm. Myelination by Schwann cells was quantified by the area of overlap between MAP2-positive neurites and MAG-positive myelin wrapping measured in μm^2. Statistical analysis was performed as a one-way ANOVA with Fisher's LSD post-test against either vehicle- or Cisplatin-treated groups respectively."}, "[4]": {"system": "neuron-Schwann cell co-cultures", "assay": "Sensory neurite extension and myelination in healthy primary dorsal root ganglia cultures", "format": "cell-based, rat", "set-up": "key to Significant promotion of Neurite Network Extension of Sensory Neurons / Significant promotion of Myelination of Sensory neurons by Schwann Cells: “NS” indicates the treatment did not have a significant effect; “+” indicates the treatment had a significant effect", "conditions": "for Significant promotion of Myelination of Sensory neurons by Schwann Cells / Significant promotion of Neurite Network Extension of Sensory Neurons: Healthy cultures, vs vehicle", "description": "as §3\nTo model the effects of Compound 5a in the normal peripheral nervous system, neuron-Schwann cell co-cultures were treated with Compound 5a in combination with low doses of recombinant hepatocyte growth factor (HGF). On day 8 in culture, experimental treatments were added to culture media. These treatments included HGF with or without Compound 5a. Some cultures were treated with the steroid hormone B-estradiol to serve as a positive control. Treatments were applied every other day, and on day 21 in culture the cultures were fixed with ethanol and processed for immunodetection of both microtubule-associate protein 2 (MAP2) to reveal neurons and their neurites as well as myelin-associated glycoprotein (MAG) to reveal Schwann cells and the extent of their myelination of cultured neurites. Cells were counterstained with Hoechst DNA dye to identify individual cells.\nas §4"}, "[5]": {"conditions": "injured cultures, positive control β-estradiol"}, "[6]": {"conditions": "healthy cultures, positive control β-estradiol"}, "[7]": {"conditions": "injured cultures, HGF alone at either 0.05 or 5 ng/ml"}, "[8]": {"conditions": "healthy cultures, HGF alone at either 0.05 or 5 ng/ml"}}, "data": [{"molecule": "CCC(C)CN1CC2N(C(=O)c3ccc(OC(F)F)cc3)CCC(=O)N2[C@@H](C)C1=O", "note": "(stereo partly shown) [Compound 2a]", "values": [{"measurement": "Efficacy: rescue of thermal hyperalgesia behavior as measured by paw withdrawal latency", "setting": "STZ DNP rats [1]; 0.00625 mg/kg PO daily", "value": "+ (+ indicates p < 0.05 vs disease control.)"}, {"measurement": "Efficacy: rescue of thermal hyperalgesia behavior as measured by paw withdrawal latency", "setting": "STZ DNP rats [1]; 0.025 mg/kg PO daily", "value": "NS"}, {"measurement": "Efficacy: rescue of thermal hyperalgesia behavior as measured by paw withdrawal latency", "setting": "STZ DNP rats [1]; 0.1 mg/kg PO daily", "value": "++ (++ indicates p < 0.01 vs disease control.)"}, {"measurement": "Efficacy: rescue of thermal hyperalgesia behavior as measured by paw withdrawal latency", "setting": "STZ DNP rats [1]; 1 mg/kg PO daily", "value": "NS"}, {"measurement": "rescue of thermal allodynia behavior as measured by paw withdrawal latency", "setting": "STZ DNP rats [1]", "value": "significant rescue"}, {"measurement": "Efficacy: rescue of mechanical allodynia behavior as measured by paw withdrawal threshold", "setting": "STZ DNP rats [2]; 0.00625 mg/kg PO daily", "value": "+ (+ indicates p < 0.05 vs disease control.)"}, {"measurement": "Efficacy: rescue of mechanical allodynia behavior as measured by paw withdrawal threshold", "setting": "STZ DNP rats [2]; 0.025 mg/kg PO daily", "value": "++ (++ indicates p < 0.01 vs disease control.)"}, {"measurement": "Efficacy: rescue of mechanical allodynia behavior as measured by paw withdrawal threshold", "setting": "STZ DNP rats [2]; 0.1 mg/kg PO daily", "value": "+++ (+++ indicates p < 0.001 vs disease control.)"}, {"measurement": "Efficacy: rescue of mechanical allodynia behavior as measured by paw withdrawal threshold", "setting": "STZ DNP rats [2]; 1 mg/kg PO daily", "value": "+++ (+++ indicates p < 0.001 vs disease control.)"}, {"measurement": "rescue of the mechanical allodynia behavior as measured by paw withdrawal threshold", "setting": "STZ DNP rats [2]", "value": "significant rescue"}]}, {"molecule": "CCC(C)CN1CC2N(Cc3ccc(OC(F)F)cc3)CCC(=O)N2[C@@H](C)C1=O", "note": "(stereo partly shown) [Compound 6a]", "values": [{"measurement": "Efficacy: rescue of thermal hyperalgesia behavior as measured by paw withdrawal latency", "setting": "STZ DNP rats [1]; 0.156 mg/kg PO daily", "value": "NS"}, {"measurement": "Efficacy: rescue of thermal hyperalgesia behavior as measured by paw withdrawal latency", "setting": "STZ DNP rats [1]; 0.625 mg/kg PO daily", "value": "NS"}, {"measurement": "Efficacy: rescue of thermal hyperalgesia behavior as measured by paw withdrawal latency", "setting": "STZ DNP rats [1]; 2.5 mg/kg PO daily", "value": "++ (++ indicates p < 0.01 vs disease control.)"}, {"measurement": "Efficacy: rescue of thermal hyperalgesia behavior as measured by paw withdrawal latency", "setting": "STZ DNP rats [1]; 10 mg/kg PO daily", "value": "+++ (+++ indicates p < 0.001 vs disease control.)"}, {"measurement": "rescue of thermal allodynia behavior as measured by paw withdrawal latency", "setting": "STZ DNP rats [1]", "value": "significant rescue"}, {"measurement": "Efficacy: rescue of mechanical allodynia behavior as measured by paw withdrawal threshold", "setting": "STZ DNP rats [2]; 0.156 mg/kg PO daily", "value": "NS"}, {"measurement": "Efficacy: rescue of mechanical allodynia behavior as measured by paw withdrawal threshold", "setting": "STZ DNP rats [2]; 0.625 mg/kg PO daily", "value": "+ (+ indicates p < 0.05 vs disease control.)"}, {"measurement": "Efficacy: rescue of mechanical allodynia behavior as measured by paw withdrawal threshold", "setting": "STZ DNP rats [2]; 2.5 mg/kg PO daily", "value": "+++ (+++ indicates p < 0.001 vs disease control.)"}, {"measurement": "Efficacy: rescue of mechanical allodynia behavior as measured by paw withdrawal threshold", "setting": "STZ DNP rats [2]; 10 mg/kg PO daily", "value": "+++ (+++ indicates p < 0.001 vs disease control.)"}, {"measurement": "rescue of the mechanical allodynia behavior as measured by paw withdrawal threshold", "setting": "STZ DNP rats [2]", "value": "significant rescue"}]}, {"molecule": "C[C@]12CC[C@@H]3c4ccc(O)cc4CC[C@H]3[C@@H]1CC[C@@H]2O", "note": "[β-estradiol, reference compound]", "values": [{"measurement": "Significant promotion of Myelination of Sensory neurons by Schwann Cells", "setting": "[3]; β-estradiol 150 nM", "value": "+"}, {"measurement": "Significant promotion of Neurite Network Extension of Sensory Neurons", "setting": "[3]; β-estradiol 150 nM", "value": "+"}, {"measurement": "myelination of sensory neurons by Schwann cells", "setting": "[3]; [5]", "value": "significantly promoting"}, {"measurement": "neurite network extension", "setting": "[3]; [5]", "value": "significantly promoting"}, {"measurement": "Significant promotion of Myelination of Sensory neurons by Schwann Cells", "setting": "[4]; β-estradiol 150 nM", "value": "+"}, {"measurement": "Significant promotion of Neurite Network Extension of Sensory Neurons", "setting": "[4]; β-estradiol 150 nM", "value": "+"}, {"measurement": "myelination of sensory neurons by Schwann cells", "setting": "[4]; [6]", "value": "significantly promoting"}, {"measurement": "neurite network extension", "setting": "[4]; [6]", "value": "significantly promoting"}]}, {"molecule": "HGF: recombinant hepatocyte growth factor (HGF), added at low doses with or without Compound 5a", "values": [{"measurement": "Significant promotion of Myelination of Sensory neurons by Schwann Cells", "setting": "[3]; HGF 0.05 ng/ml alone", "value": "NS"}, {"measurement": "Significant promotion of Neurite Network Extension of Sensory Neurons", "setting": "[3]; HGF 0.05 ng/ml alone", "value": "NS"}, {"measurement": "Significant promotion of Myelination of Sensory neurons by Schwann Cells", "setting": "[3]; HGF 5 ng/ml alone", "value": "NS"}, {"measurement": "Significant promotion of Neurite Network Extension of Sensory Neurons", "setting": "[3]; HGF 5 ng/ml alone", "value": "NS"}, {"measurement": "myelination", "setting": "[3]; [7]", "value": "did not significantly promote"}, {"measurement": "neurite network extension", "setting": "[3]; [7]", "value": "did not significantly promote"}, {"measurement": "Significant promotion of Myelination of Sensory neurons by Schwann Cells", "setting": "[4]; HGF 0.05 ng/ml alone", "value": "NS"}, {"measurement": "Significant promotion of Neurite Network Extension of Sensory Neurons", "setting": "[4]; HGF 0.05 ng/ml alone", "value": "NS"}, {"measurement": "Significant promotion of Myelination of Sensory neurons by Schwann Cells", "setting": "[4]; HGF 5 ng/ml alone", "value": "NS"}, {"measurement": "Significant promotion of Neurite Network Extension of Sensory Neurons", "setting": "[4]; HGF 5 ng/ml alone", "value": "NS"}, {"measurement": "myelination", "setting": "[4]; [8]", "value": "did not significantly promote"}, {"measurement": "neurite network extension", "setting": "[4]; [8]", "value": "did not significantly promote"}]}]}
